“And” between values parts separate entries of the source, which are not always exact repeats. Equal entries are not always repeated. “Also recorded” adds a separate entry of the source. Where two headings read alike, the source gives them in different places.
Tests used:
[1] = test system: anionic transport in smooth muscle cells of aorta rings; experiment: Iodide efflux (125I) on rat aorta rings; format: cell-based; design: key to iodide discharge speed / iodide discharge speed after stimulation: Ln(125I t1/125I t2)/(t1−t2), per min; key to increase of discharge speed over basal state: difference of Ln(125I t1/125I t2)/(t1−t2) values, per min; details: for activation of anionic transport / discharge speed: smooth muscle cells of aorta rings; for iodide discharge speed / increase of discharge speed over basal state: hyperpotassium medium
Experimental: The iodide efflux technique, perfected by Venglarick et al. (1990), allows measurement of the movement of ions and is described in detail in Derand et al. (2001).
The aorta rings of equivalent size, are incubated in 1 ml of filling solution composed of physiological solution of modified Krebs type or hyperpotassium solution (80 mM KCl) supplemented with 1.5 μl/ml of Na ^125I and 0.1 μl/ml of KI. After incubation for 1 hour 30 minutes at 37° C., 4 successive rinsings of two minutes are carried out in 1 ml of appropriate physiological solution (normal Krebs or hyperpotassium solution). An iodide efflux kinetics of the aorta rings is carried out for 12 min. After each minute, the content of each well is sampled and placed in hemolysis tubes, and radioactivity is counted with a gamma counter (Packard, Cobra II). At the 12th minute, the aorta rings are solubilized in Sodium Dodecyl Sulphate (SDS 0.1%)+NaOH (0.1 M). This stage allows the recovery of the residual radioactivity by cell destruction.
The total radioactivity of the cells is calculated by the addition of the counts per minute (cpm) of each collected fraction and of the cpm of the solubilized fraction (residual radioactivity). The curves are plotted expressing the efflux as a percentage of the cell content accumulated in the medium as a function of time. For example, the value attributed at time tn, corresponds to: 100×(Σ cpm obtained from t0 to tn)/total radioactivity. The instantaneous discharge speed is presented according to the formula Ln(^125It1/^125It2)/(t1−t2), where t1 and t2 are two successive times and ^125It1 and ^125It2 are the effluxes measured at time t1 and t2. In order to evaluate the effect of a substance, the activation ratio r=discharge speed after stimulation/discharge speed before stimulation is determined. The results (average±SEM) are compared using Student's statistical test for a paired value.

[2] = test system: aorta rings isolated from rats; experiment: Isolated organ technique: relaxation of rat aorta rings pre-contracted in hyperpotassium solution (80 mM KCl); format: cell-based; details: for EC50: Rattus norvegicus
Experimental: The experiments are carried out on the thoracic aorta of male rats of Wistar strain weighing 200 to 250 g, 7 to 8 weeks of age. The rat is stunned then placed in the supine position. After thoracotomy, the segment of the aorta comprised between the diaphragm and the right aortic arch is excised. The portion of aorta is immediately placed in a buffered physiological solution of modified Krebs type. The aorta is sectioned into 5 mm rings.
For certain preparations, the endothelium is removed mechanically using a needle surrounded by a wire which is turned in the aorta ring.
The aorta rings, after dissection, are suspended between two hooks one of which is fixed and the other is mobile. This mounting is placed in a chamber of Plexiglas (Emka Technologies), thermostatically-controlled at 37° C., containing 5 ml of physiological solution oxygenated by a gas mixture (95% O2-5% CO2). The thermostatically-controlled enclosure is supplied by a water bath. The mobile hook is suspended with a sensor connected to the interface (electromechanical transducer). This interface is connected on the one hand to an amplifier (amplification of the signal) and on the other hand to a computer (display and analysis of the signal). The IOX 1.565 program enables the processing and display of the signals on the computer screen. The Data Analyst and Prism 3.0 programs allow analysis of the results.
After mounting the aorta rings in the experimental device, these are stretched at a basal tension of 2.5 g. This tension corresponds to the optimum point of their tension/length relationship. Waiting for a stable state in the reference physiological medium is carried out over a period of approximately 1 hour with washing every 20 minutes. Following this equilibration period, the different experiments are carried out.
In order to be free of the relaxation/contraction mechanisms due to the endothelium, certain preparations are made devoid of the latter by mechanical destruction. In order to ensure effective destruction of the endothelium, a cholinergic test (ACh 10^−4 M) is carried out at the end of the first period of equilibration, on preparations pre-contracted by a hyperpotassium solution (80 mM of KCl).
Following this test, the preparations are subjected to several successive washings in order to re-establish a stable state. Once a stable state is reached, the different experiments can be carried out. The contractures due to the hyperpotassium solutions are obtained by the total replacement of the reference physiological solution by the hyperpotassium solution. The administration of the pharmacological substances is carried out in a cumulative fashion and directly in the isolated organ chambers whilst paying attention that the additional volume is not too high. The application of each new concentration only occurs after stabilization. In order to be aware of the reactivity state of the preparation at the end of manipulation, a hyperpotassium or noradrenergic test is carried out. If the preparation reacts in the direction of a contracture, the test is valid.
The composition of the reference physiological solution is a solution of modified Krebs type: NaCl: 120 mM; KCl: 4.7 mM; CaCl2: 2.5 mM; MgCl2: 1.2 mM; NaH2PO4: 1.2 mM; NaHCO3: 15 mM; Hepes: 10 mM; Glucose: 11 mM; pH=7.4. Hyperpotassium solutions containing different concentrations of KCl have been prepared according to the same principle. These solutions are used to provoke a contracture of the aorta ring by depolarisation of the smooth muscle cells. The hyperpotassium solution mainly used in the experiments contains 80 mM of KCl.

CFTR [3] = biological target: T1, CFTR (Homo sapiens, UniProt P13569); details: epithelial cells; cited from earlier work
T1 construct: In cells expressing the CFTR protein in an endogenous manner
T1 sequence (P13569 whole entry): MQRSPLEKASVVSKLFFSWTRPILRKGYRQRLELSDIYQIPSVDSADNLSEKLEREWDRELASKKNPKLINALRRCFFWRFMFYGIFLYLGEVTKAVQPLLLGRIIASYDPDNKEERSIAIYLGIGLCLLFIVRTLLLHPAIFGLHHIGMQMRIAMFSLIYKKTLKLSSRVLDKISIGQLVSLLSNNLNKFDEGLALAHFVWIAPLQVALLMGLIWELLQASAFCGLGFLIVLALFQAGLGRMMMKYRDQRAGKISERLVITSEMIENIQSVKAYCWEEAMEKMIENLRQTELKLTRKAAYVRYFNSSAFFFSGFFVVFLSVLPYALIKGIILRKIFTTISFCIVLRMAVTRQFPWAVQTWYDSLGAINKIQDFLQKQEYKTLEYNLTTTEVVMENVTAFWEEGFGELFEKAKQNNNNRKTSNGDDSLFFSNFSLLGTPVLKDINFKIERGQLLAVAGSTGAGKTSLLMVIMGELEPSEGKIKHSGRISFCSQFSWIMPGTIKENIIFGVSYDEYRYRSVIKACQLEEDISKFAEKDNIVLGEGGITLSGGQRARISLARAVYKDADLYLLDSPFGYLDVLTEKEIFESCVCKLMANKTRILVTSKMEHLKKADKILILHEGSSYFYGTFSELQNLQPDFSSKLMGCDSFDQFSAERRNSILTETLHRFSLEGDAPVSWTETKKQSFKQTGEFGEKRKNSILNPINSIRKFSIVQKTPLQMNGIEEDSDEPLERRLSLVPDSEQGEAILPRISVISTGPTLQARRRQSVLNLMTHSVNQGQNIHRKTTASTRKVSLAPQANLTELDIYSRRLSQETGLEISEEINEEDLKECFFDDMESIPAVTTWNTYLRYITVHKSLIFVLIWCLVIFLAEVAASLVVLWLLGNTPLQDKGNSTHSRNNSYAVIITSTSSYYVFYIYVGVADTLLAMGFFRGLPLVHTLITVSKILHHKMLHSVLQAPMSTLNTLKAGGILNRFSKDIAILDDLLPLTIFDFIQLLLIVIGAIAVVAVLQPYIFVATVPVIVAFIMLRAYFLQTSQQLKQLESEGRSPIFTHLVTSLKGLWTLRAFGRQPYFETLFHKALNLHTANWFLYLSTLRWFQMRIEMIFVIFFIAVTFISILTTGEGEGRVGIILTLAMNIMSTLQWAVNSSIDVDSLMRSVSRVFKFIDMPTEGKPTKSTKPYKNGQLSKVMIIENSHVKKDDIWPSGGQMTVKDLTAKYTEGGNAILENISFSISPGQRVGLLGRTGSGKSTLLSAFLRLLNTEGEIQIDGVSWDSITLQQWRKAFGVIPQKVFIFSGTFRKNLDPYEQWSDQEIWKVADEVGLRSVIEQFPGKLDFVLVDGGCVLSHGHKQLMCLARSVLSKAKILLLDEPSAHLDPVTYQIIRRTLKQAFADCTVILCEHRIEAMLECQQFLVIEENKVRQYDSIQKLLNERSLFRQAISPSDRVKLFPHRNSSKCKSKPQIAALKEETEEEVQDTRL

CFTR [4] = biological target: T2, CFTR (Rattus norvegicus, UniProt P34158); experiment: Iodide efflux in muscle cell freshly dissociated from rat aorta; format: cell-based
T2 construct: CFTR is detected at the level of its messenger RNA and at the level of protein in the smooth muscles; from tissue; host or cells: smooth muscle cells freshly dissociated from rat aorta
T2 sequence (P34158 whole entry): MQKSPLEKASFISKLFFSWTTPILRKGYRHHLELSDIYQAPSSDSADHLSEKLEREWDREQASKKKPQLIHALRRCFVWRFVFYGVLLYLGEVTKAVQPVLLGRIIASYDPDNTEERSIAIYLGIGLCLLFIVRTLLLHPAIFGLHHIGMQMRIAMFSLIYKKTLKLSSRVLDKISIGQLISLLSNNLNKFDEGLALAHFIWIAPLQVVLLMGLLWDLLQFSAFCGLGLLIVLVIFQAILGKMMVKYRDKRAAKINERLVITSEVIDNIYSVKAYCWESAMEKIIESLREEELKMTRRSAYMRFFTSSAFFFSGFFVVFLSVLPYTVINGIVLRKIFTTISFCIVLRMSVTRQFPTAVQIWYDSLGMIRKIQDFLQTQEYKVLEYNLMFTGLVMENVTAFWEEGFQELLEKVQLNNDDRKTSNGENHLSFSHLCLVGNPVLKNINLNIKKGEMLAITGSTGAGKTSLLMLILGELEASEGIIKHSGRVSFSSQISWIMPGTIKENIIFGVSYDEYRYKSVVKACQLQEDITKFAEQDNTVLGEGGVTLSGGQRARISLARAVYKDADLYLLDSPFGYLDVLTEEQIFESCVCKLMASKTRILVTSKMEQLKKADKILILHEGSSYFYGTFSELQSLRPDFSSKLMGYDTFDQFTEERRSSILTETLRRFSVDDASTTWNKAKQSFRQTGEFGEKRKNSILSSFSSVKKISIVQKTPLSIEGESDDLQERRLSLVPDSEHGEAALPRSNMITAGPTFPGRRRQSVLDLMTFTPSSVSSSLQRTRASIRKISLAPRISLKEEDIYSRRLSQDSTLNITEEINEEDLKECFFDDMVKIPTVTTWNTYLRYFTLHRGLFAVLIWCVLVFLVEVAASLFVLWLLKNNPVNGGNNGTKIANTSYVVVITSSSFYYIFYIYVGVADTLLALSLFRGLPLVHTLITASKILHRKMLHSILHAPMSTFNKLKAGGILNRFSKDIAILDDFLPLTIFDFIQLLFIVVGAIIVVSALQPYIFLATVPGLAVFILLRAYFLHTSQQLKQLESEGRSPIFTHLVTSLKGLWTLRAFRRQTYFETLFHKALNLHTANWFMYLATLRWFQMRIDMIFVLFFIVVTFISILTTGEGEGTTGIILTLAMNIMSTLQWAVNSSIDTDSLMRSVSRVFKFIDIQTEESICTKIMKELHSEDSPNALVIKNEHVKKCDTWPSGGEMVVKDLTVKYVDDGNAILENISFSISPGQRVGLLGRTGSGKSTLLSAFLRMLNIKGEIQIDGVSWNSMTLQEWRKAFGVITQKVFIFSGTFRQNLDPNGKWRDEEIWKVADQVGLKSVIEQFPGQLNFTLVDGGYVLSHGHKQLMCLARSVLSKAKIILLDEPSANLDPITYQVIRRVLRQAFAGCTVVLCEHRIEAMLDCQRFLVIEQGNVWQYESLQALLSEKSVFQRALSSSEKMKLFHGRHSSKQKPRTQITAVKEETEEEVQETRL
Text: (§1) CFTR is detected at the level of its messenger RNA and at the level of protein in the smooth muscles. As negative control the inventors used musculus skeleti of rat at the level of which neither the messenger nor the protein are present. CFTR is detectable in the smooth muscle by immunoprecipitation and phosphorylation in vitro by the protein kinase A. The pharmacology of CFTR has been studied using iodide efflux in muscle cell freshly dissociated from rat aorta. […] Its inhibition profile is similar to that of epithelial CFTR (sensitivity to glibenclamide and DPC but not to Calixarene). […] Moreover, a greater contraction is observed in the KO animals in response to the constricting agents.

[5] = test system: aorta rings of Cftr-/- mice; experiment: Vasorelaxation of aorta rings contracted by 80 mM K+, Cftr-/- mice; format: cell-based, mouse; details: pre-contracted aorta
Text: as §1
(§2) a, graphs showing the vasorelaxation induced by the VIP neuropeptide (Vasoactive Intestinal Polypeptide) of aortas without endothelium of Cftr^+/+ (left) and Cftr^−/− (right) mice. The aorta rings are reversibly contracted by a hyperpotassium solution (solution of 80 mM K^+) then the effect of 300 nM VIP is measured. The absence of endothelium is verified by the addition of acetylcholine (ACh, 10^−5 M).
(§3) This effect is absent in Cftr^−/− mice (n=6). Average±SEM*P<0.05, ** P<0.01, *** P<0.001.

[6] = test system: aorta rings of Cftr+/+ mice; experiment: Vasorelaxation of aorta rings contracted by 80 mM K+, Cftr+/+ mice; format: cell-based, mouse; details: for effect on pre-contracted aorta: Cftr+/+ rat and mouse tissues
Text: as §1, §2, §3

[7] = test system: aorta rings with endothelium pre-contracted by arterenol; experiment: Isolated organ technique: relaxation of rat aorta rings pre-contracted by arterenol; format: cell-based
Experimental: The experiments are carried out on the thoracic aorta of male rats of Wistar strain weighing 200 to 250 g, 7 to 8 weeks of age. The rat is stunned then placed in the supine position. After thoracotomy, the segment of the aorta comprised between the diaphragm and the right aortic arch is excised. The portion of aorta is immediately placed in a buffered physiological solution of modified Krebs type. The aorta is sectioned into 5 mm rings. The aorta rings, after dissection, are suspended between two hooks one of which is fixed and the other is mobile. […] The thermostatically-controlled enclosure is supplied by a water bath. The mobile hook is suspended with a sensor connected to the interface (electromechanical transducer). This interface is connected on the one hand to an amplifier (amplification of the signal) and on the other hand to a computer (display and analysis of the signal). […] The Data Analyst and Prism 3.0 programs allow analysis of the results. After mounting the aorta rings in the experimental device, these are stretched at a basal tension of 2.5 g. This tension corresponds to the optimum point of their tension/length relationship. Waiting for a stable state in the reference physiological medium is carried out over a period of approximately 1 hour with washing every 20 minutes. Following this equilibration period, the different experiments are carried out. […]

human mammary arteries = experiment: Vasorelaxant effect on human mammary arteries; format: cell-based
Text: The pharmacological effects of the compounds of the benzo[c]quinolizinium family, CFTR activators: 6-hydroxy-10-chlorobenzo[c]quinolizinium chloride (reference name: MPB-07) and 5-butyl-6-hydroxy-10-chlorobenzo[c]quinolizinium chloride (reference name: MPB-91), were studied on aorta rings isolated from rats and from human mammary arteries.

[8] = without endothelium, 250 μM, 1 minute after addition
[9] = without endothelium, 250 μM, 2 minutes after addition
[10] = comparison of FIG. 6, read-out: EC50, dose/response curves
[11] = summary statement of results, read-out: EC50, vasorelaxant effect

O=c1cc2ccccn2c2c(Cl)cccc12 [MPB-70, 10-chlorobenzo[c]quinolizine-6-one, reference compound]
activation of anionic transport / discharge speed [1]: no increase in the discharge speed
iodide discharge speed [1, 8]: 0.053±0.003
iodide discharge speed [1, 9]: 0.055±0.005
relaxation ([2]; with endothelium, 160 μM): 27%
relaxation ([2]; with endothelium, 250 μM): 42%
relaxation ([2]; with endothelium, 500 μM): 46%
activity on the CFTR channel (CFTR [3]): inactive on CFTR of epithelial cells

CCCCc1c(O)c2cccc(Cl)c2[n+]2ccccc12.[Cl-] [MPB-91, 5-n-Butyl-10-chloro-6-hydroxybenzo[c]quinolizinium chloride]
EC50 [2, 10]: 21 µM
EC50 [2, 11]: 21 µM
melting point: 160 °C

O=C(O)c1ccccc1Nc1ccccc1 [DPC]
inhibition profile of iodide efflux (CFTR [4]): sensitivity

Oc1cc2cccc[n+]2c2c(Cl)cccc12.[Cl-] [MPB-07, 6-hydroxy-10-chlorobenzo[c]quinolizinium chloride]
iodide discharge speed ([1]; L-NAME 10^-4 M, 250 μM, 1 minute after addition): 0.103±0.017
iodide discharge speed ([1]; L-NAME 10^-4 M, 250 μM, 2 minutes after addition): 0.110±0.015
iodide discharge speed ([1]; L-NAME 10^-4 M, 250 μM, 3 minutes after addition): 0.119±0.011
increase of discharge speed over basal state ([1]; L-NAME, 1 minute): 0.044
increase of discharge speed over basal state ([1]; L-NAME, 2 minutes): 0.051
increase of discharge speed over basal state ([1]; L-NAME, 3 minutes): 0.060
activation of anionic transport / discharge speed [1]: activates anionic transport
iodide discharge speed [1, 8]: 0.076±0.008
iodide discharge speed [1, 9]: 0.099±0.013
increase of discharge speed over basal state ([1]; without endothelium, 1 minute): 0.023
increase of discharge speed over basal state ([1]; without endothelium, 2 minutes): 0.046
iodide discharge speed after stimulation ([1]; without endothelium, normal physiological medium, 250 μM, n=3): 0.076±0.016
vasorelaxation in Cftr-/- mice [5]: very considerably reduced; also recorded: absent
EC50 ([2]; aorta rings with endothelium, 80 mM KCl, n=14, read-out: EC50, relaxation): 132.4 ± 0.02 µM
EC50 ([2]; aorta rings without endothelium, 80 mM KCl, n=7, read-out: EC50, relaxation): 92.9 ± 0.02 µM
EC50 [2, 10]: 133 µM
EC50 [2, 11]: 134 µM
EC50 ([2]; with endothelium + L-NAME 10^-4 M, n=8, read-out: EC50, relaxation): 51.8 ± 0.008 µM
EC50 ([2]; without endothelium + L-NAME, n=7, read-out: EC50, relaxation): 55.1 ± 0.2 µM
reversibility of the relaxing effect ([2]; single dose 135 μM, with endothelium, after washing): reversible
relaxation ([2]; with endothelium + L-NAME, 40 μM): 33±6.15%
relaxation ([2]; with endothelium + L-NAME, 160 μM): 98±1.3%
relaxation ([2]; with endothelium, 80 μM): 24±1.6%
relaxation ([2]; with endothelium, 160 μM): 64%
relaxation ([2]; with endothelium, 250 μM): 88%
relaxation ([2]; with endothelium, 500 μM): 96±1.75% and 100%
relaxation ([2]; without endothelium, 80 μM): 37±5.6%
relaxation ([2]; without endothelium, 250 μM): 99±1%
activity on the CFTR channel (CFTR [3]): activators of this ion channel
effect on pre-contracted aorta [6]: relaxation of the pre-contracted aorta
IC50 ([6]; Mus musculus, aorta rings contracted by 80 mM K+, n=6): 37 ± 1.17 µM
relaxation ([7]; 10 μM, arterenol 10^-4 M, after 2 hours 30 minutes): 90±9%
vasorelaxant effect (human mammary arteries): reversible and slow dose-dependent vasorelaxant effect

COc1ccc(CCN(C)CCCC(C#N)(c2ccc(OC)c(OC)c2)C(C)C)cc1OC (stereo not shown) [verapamil, Verapamil, reference compound]
effect on rapid contracture oscillations ([7]; 200 μM, added after MPB-07 10 μM): stops these variations

CC(C)Cn1c(=O)n(C)c(=O)c2[nH]cnc21 [IBMX]
activation of iodide efflux (CFTR [4]): activate iodide efflux

CC(=O)OCC[N+](C)(C)C [ACh, acetylcholine, reference compound]
relaxation (cholinergic test) ([2]; rings with endothelium, 10^-4 M): approximately 40%

COc1ccc(Cl)cc1C(=O)NCCc1ccc(S(=O)(=O)NC(=O)NC2CCCCC2)cc1 [glibenclamide]
inhibition profile of iodide efflux (CFTR [4]): sensitivity

Nc1ncnc2c1nc(Sc1ccc(Cl)cc1)n2[C@@H]1O[C@@H]2COP(=O)(O)O[C@H]2[C@H]1O [cpt-cAMP]
activation of iodide efflux (CFTR [4]): activate iodide efflux

Vasoactive Intestinal Polypeptide [VIP, reference compound]
vasorelaxation in Cftr-/- mice [5]: very considerably reduced
effect on pre-contracted aorta [6]: relaxation of the pre-contracted aorta
activation of iodide efflux (CFTR [4]): activate iodide efflux

— US7897610B2, “Use of benzo[c]quinolizinium derivatives for the treatment of diseases that are linked to smooth muscle cell constriction” (Centre National de la Recherche Scientifique, priority 2002, dated 2011)
